Laboratory results published in patent US9371280B2, “Substituted pyrrolidine-2-carboxamides” (Hoffmann-La Roche Inc., priority 2012, dated 2016).
pIC50: −log10 of the molar value. Where a name gives a salt, the structure may show the parent alone.

Biological target: interaction between p53 and MDM2 proteins (recombinant GST-tagged MDM2) (Homo sapiens, UniProt Q00987)
Experiment: HTRF assay of inhibition of the p53-MDM2 interaction (GST-MDM2 / biotinylated p53 peptide);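 also: FRET read-out from Eu-labelled anti-GST antibody to streptavidin-APC, with 90 nM N-terminally biotinylated p53 peptide and 160 ng/ml GST-MDM2 in Tris-borate saline containing 1 mM DTT, 384-well format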
Format: binding
Conditions: HTRF, 0.02% BSA, 37° C. 1 h
Description: The ability of the compounds to inhibit the interaction between p53 and MDM2 proteins was measured by an HTRF (homogeneous time-resolved fluorescence) assay in which recombinant GST-tagged MDM2 binds to a peptide that resembles the MDM2-interacting region of p53 (Lane et al.). Binding of GST-MDM2 protein and p53-peptide (biotinylated on its N-terminal end) is registered by the FRET (fluorescence resonance energy transfer) between Europium (Eu)-labeled anti-GST antibody and streptavidin-conjugated Allophycocyanin (APC).
Test is performed in black flat-bottom 384-well plates (Costar) in a total volume of 40 uL containing: 90 nM biotinylate peptide, 160 ng/ml GST-MDM2, 20 nM streptavidin-APC (PerkinElmerWallac), 2 nM Eu-labeled anti-GST-antibody (PerkinElmerWallac), 0.02% bovine serum albumin (BSA), 1 mM dithiothreitol (DTT) and 20 mM Tris-borate saline (TBS) buffer as follows: Add 10 uL of GST-MDM2 (640 ng/ml working solution) in reaction buffer to each well. […] Incubate at 37° C. for 1 h.

interaction between p53 and MDM2 proteins (recombinant GST-tagged MDM2), sequence (Q00987 whole entry): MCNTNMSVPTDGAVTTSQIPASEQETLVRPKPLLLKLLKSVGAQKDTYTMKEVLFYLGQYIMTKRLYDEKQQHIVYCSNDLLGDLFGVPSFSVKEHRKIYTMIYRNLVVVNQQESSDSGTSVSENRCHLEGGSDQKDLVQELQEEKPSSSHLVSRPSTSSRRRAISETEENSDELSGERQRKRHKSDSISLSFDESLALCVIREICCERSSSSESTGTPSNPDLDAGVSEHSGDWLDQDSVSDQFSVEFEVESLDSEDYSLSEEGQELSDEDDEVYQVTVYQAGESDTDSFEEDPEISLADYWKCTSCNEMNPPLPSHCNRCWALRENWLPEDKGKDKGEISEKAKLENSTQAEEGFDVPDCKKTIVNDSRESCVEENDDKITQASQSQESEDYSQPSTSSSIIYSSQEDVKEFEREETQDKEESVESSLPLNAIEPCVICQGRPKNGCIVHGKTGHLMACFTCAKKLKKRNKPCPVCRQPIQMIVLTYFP

| Compound | pIC50 |
| --- | --- |
| COc1cc(C(=O)NN)ccc1NC(=O)[C@@H]1N[C@@H](CC(C)(C)C)[C@](C#N)(c2ccc(Cl)cc2F)[C@H]1c1cccc(Cl)c1F [Example 39, (2R,3S,4R,5S)-4-(4-Chloro-2-fluoro-phenyl)-3-(3-chloro-2-fluoro-phenyl)-4-cyano-5-(2,2-dimethyl-propyl)-pyrrolidine-2-carboxylic acid (4-hydrazinocarbonyl-2-methoxy-phenyl)-amide] | 7.44 |
| COc1cc(C(=O)O[C@@H]2O[C@H](C(=O)O)[C@@H](O)[C@H](O)[C@H]2O)ccc1NC(=O)[C@@H]1N[C@@H](CC(C)(C)C)[C@](C#N)(c2ccc(Cl)cc2F)[C@H]1c1cccc(Cl)c1F [Example 40, (2S,3S,4S,5R,6S)-6-(4-{[(2R,3S,4R,5S)-4-(4-Chloro-2-fluoro-phenyl)-3-(3-chloro-2-fluoro-phenyl)-4-cyano-5-(2,2-dimethyl-propyl)-pyrrolidine-2-carbonyl]-amino}-3-methoxy-benzoyloxy)-3,4,5-trihydroxy-tetrahydro-pyran-2-carboxylic acid; compound with trifluoro-acetic acid] | 8.21 |
| COc1cc(C(=O)OC[C@H]2O[C@@H](O)[C@H](O)[C@@H](O)[C@@H]2O)ccc1NC(=O)[C@@H]1N[C@@H](CC(C)(C)C)[C@](C#N)(c2ccc(Cl)cc2F)[C@H]1c1cccc(Cl)c1F [Example 41, 4-{[(2R,3S,4R,5S)-4-(4-Chloro-2-fluoro-phenyl)-3-(3-chloro-2-fluoro-phenyl)-4-cyano-5-(2,2-dimethyl-propyl)-pyrrolidine-2-carbonyl]-amino}-3-methoxy-benzoic acid (2R,3S,4S,5R,6R)-3,4,5,6-tetrahydroxy-tetrahydro-pyran-2-ylmethyl ester; compound with trifluoro-acetic acid] | 8.16 |
| COc1cc(C(=O)OCCOCCOCCOCCOCCOCCOCCOCCO)ccc1NC(=O)[C@@H]1N[C@@H](CC(C)(C)C)[C@](C#N)(c2ccc(Cl)cc2F)[C@H]1c1cccc(Cl)c1F [Example 42, 4-{[(2R,3S,4R,5S)-4-(4-Chloro-2-fluoro-phenyl)-3-(3-chloro-2-fluoro-phenyl)-4-cyano-5-(2,2-dimethyl-propyl)-pyrrolidine-2-carbonyl]-amino}-3-methoxy-benzoic acid, 2-(2-{2-[2-(2-{2-[2-(2-hydroxy-ethoxy)-ethoxy]-ethoxy}-ethoxy)-ethoxy]-ethoxy}-ethoxy)-ethyl ester, trifluoroacetate salt] | 7.65 |
| COc1cc(C(=O)OCCOCCN(C)C)ccc1NC(=O)[C@@H]1N[C@@H](CC(C)(C)C)[C@](C#N)(c2ccc(Cl)cc2F)[C@H]1c1cccc(Cl)c1F [Example 46, 4-{[(2R,3S,4R,5S)-4-(4-Chloro-2-fluoro-phenyl)-3-(3-chloro-2-fluoro-phenyl)-4-cyano-5-(2,2-dimethyl-propyl)-pyrrolidine-2-carbonyl]-amino}-3-methoxy-benzoic acid 2-(2-dimethylamino-ethoxy)-ethyl ester, hydrochloride] | 7.85 |
| COc1cc(C(=O)OCCOCCOCCO)ccc1NC(=O)[C@@H]1N[C@@H](CC(C)(C)C)[C@](C#N)(c2ccc(Cl)cc2F)[C@H]1c1cccc(Cl)c1F [Example 47, 4-{[(2R,3S,4R,5S)-4-(4-Chloro-2-fluoro-phenyl)-3-(3-chloro-2-fluoro-phenyl)-4-cyano-5-(2,2-dimethyl-propyl)-pyrrolidine-2-carbonyl]-amino}-3-methoxy-benzoic acid 2-[2-(2-hydroxy-ethoxy)-ethoxy]-ethyl ester, hydrochloride] | 8.08 |
| COCCOCCOCCOC(=O)c1ccc(NC(=O)[C@@H]2N[C@@H](CC(C)(C)C)[C@](C#N)(c3ccc(Cl)cc3F)[C@H]2c2cccc(Cl)c2F)c(OC)c1 [Example 48, 4-{[(2R,3S,4R,5S)-4-(4-Chloro-2-fluoro-phenyl)-3-(3-chloro-2-fluoro-phenyl)-4-cyano-5-(2,2-dimethyl-propyl)-pyrrolidine-2-carbonyl]-amino}-3-methoxy-benzoic acid 2-[2-(2-methoxy-ethoxy)-ethoxy]-ethyl ester, hydrochloride] | 7.87 |
| COCCOCCOCCOCCOC(=O)c1ccc(NC(=O)[C@@H]2N[C@@H](CC(C)(C)C)[C@](C#N)(c3ccc(Cl)cc3F)[C@H]2c2cccc(Cl)c2F)c(OC)c1 [Example 49, 4-{[(2R,3S,4R,5S)-4-(4-Chloro-2-fluoro-phenyl)-3-(3-chloro-2-fluoro-phenyl)-4-cyano-5-(2,2-dimethyl-propyl)-pyrrolidine-2-carbonyl]-amino}-3-methoxy-benzoic acid 2-{2-[2-(2-methoxy-ethoxy)-ethoxy]-ethoxy}-ethyl ester, hydrochloride] | 7.86 |
| COc1cc(C(=O)OCCOCCOCCOCCOCCO)ccc1NC(=O)[C@@H]1N[C@@H](CC(C)(C)C)[C@](C#N)(c2ccc(Cl)cc2F)[C@H]1c1cccc(Cl)c1F [Example 50, 4-{[(2R,3S,4R,5S)-4-(4-Chloro-2-fluoro-phenyl)-3-(3-chloro-2-fluoro-phenyl)-4-cyano-5-(2,2-dimethyl-propyl)-pyrrolidine-2-carbonyl]-amino}-3-methoxy-benzoic acid 2-(2-{2-[2-(2-hydroxy-ethoxy)-ethoxy]-ethoxy}-ethoxy)-ethyl ester, hydrochloride] | 8.04 |
| COCCOCCOCCOCCOCCOC(=O)c1ccc(NC(=O)[C@@H]2N[C@@H](CC(C)(C)C)[C@](C#N)(c3ccc(Cl)cc3F)[C@H]2c2cccc(Cl)c2F)c(OC)c1 [Example 51, 4-{[(2R,3S,4R,5S)-4-(4-Chloro-2-fluoro-phenyl)-3-(3-chloro-2-fluoro-phenyl)-4-cyano-5-(2,2-dimethyl-propyl)-pyrrolidine-2-carbonyl]-amino}-3-methoxy-benzoic acid 2-(2-{2-[2-(2-methoxy-ethoxy)-ethoxy]-ethoxy}-ethoxy)-ethyl ester, hydrochloride] | 8.00 |
| COc1cc(C(=O)OCCOCCOCCOCCOCCOCCO)ccc1NC(=O)[C@@H]1N[C@@H](CC(C)(C)C)[C@](C#N)(c2ccc(Cl)cc2F)[C@H]1c1cccc(Cl)c1F [Example 52, 4-{[(2R,3S,4R,5S)-4-(4-Chloro-2-fluoro-phenyl)-3-(3-chloro-2-fluoro-phenyl)-4-cyano-5-(2,2-dimethyl-propyl)-pyrrolidine-2-carbonyl]-amino}-3-methoxy-benzoic acid 2-[2-(2-{2-[2-(2-hydroxy-ethoxy)-ethoxy]-ethoxy}-ethoxy)-ethoxy]-ethyl ester, hydrochloride] | 8.00 |
| COC(=O)CC[C@@H](NC(=O)c1ccc(NC(=O)[C@@H]2N[C@@H](CC(C)(C)C)[C@](C#N)(c3ccc(Cl)cc3F)[C@H]2c2cccc(Cl)c2F)c(OC)c1)C(=O)OC [Example 53, (R)-2-(4-{[(2R,3S,4R,5S)-4-(4-Chloro-2-fluoro-phenyl)-3-(3-chloro-2-fluoro-phenyl)-4-cyano-5-(2,2-dimethyl-propyl)-pyrrolidine-2-carbonyl]-amino}-3-methoxy-benzoylamino)-pentanedioic acid dimethyl ester, hydrochloride] | 7.90 |
| COc1cc(C(=O)N[C@H](CCC(=O)O)C(=O)O)ccc1NC(=O)[C@@H]1N[C@@H](CC(C)(C)C)[C@](C#N)(c2ccc(Cl)cc2F)[C@H]1c1cccc(Cl)c1F [Example 54, (R)-2-(4-{[(2R,3S,4R,5S)-4-(4-Chloro-2-fluoro-phenyl)-3-(3-chloro-2-fluoro-phenyl)-4-cyano-5-(2,2-dimethyl-propyl)-pyrrolidine-2-carbonyl]-amino}-3-methoxy-benzoylamino)-pentanedioic acid, hydrochloride] | 8.34 |
